Source: PubChem BioAssay (NCI)
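How tested: cells in 96-well plates exposed to compound for 48 hours at five concentrations. The concentration for 50% growth inhibition is given as GI50. TGI is the concentration that stops growth completely.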

Key:
Test in all cases: NCI tumour cell line growth inhibition, 48 h
786-0 renal = tested on: 786-0 renal
A498 renal = tested on: A498 renal
A549 NSCLC = tested on: A549 NSCLC
ACHN renal = tested on: ACHN renal
BT-549 breast = tested on: BT-549 breast
CAKI-1 renal = tested on: CAKI-1 renal
CCRF-CEM leukemia = tested on: CCRF-CEM leukemia
COLO 205 colon = tested on: COLO 205 colon
DU-145 prostate = tested on: DU-145 prostate
EKVX NSCLC = tested on: EKVX NSCLC
HCC-2998 colon = tested on: HCC-2998 colon
HCT-116 colon = tested on: HCT-116 colon
HCT-15 colon = tested on: HCT-15 colon
HL-60(TB) leukemia = tested on: HL-60(TB) leukemia
HOP-62 NSCLC = tested on: HOP-62 NSCLC
HOP-92 NSCLC = tested on: HOP-92 NSCLC
HS 578T breast = tested on: HS 578T breast
HT29 colon = tested on: HT29 colon
IGROV1 ovarian = tested on: IGROV1 ovarian
K-562 leukemia = tested on: K-562 leukemia
KM12 colon = tested on: KM12 colon
LOX IMVI melanoma = tested on: LOX IMVI melanoma
M14 melanoma = tested on: M14 melanoma
MALME-3M melanoma = tested on: MALME-3M melanoma
MCF7 breast = tested on: MCF7 breast
MDA-MB-231 breast = tested on: MDA-MB-231 breast
MDA-MB-435 = tested on: MDA-MB-435
MDA-MB-468 breast = tested on: MDA-MB-468 breast
MOLT-4 leukemia = tested on: MOLT-4 leukemia
NCI-H226 lung = tested on: NCI-H226 lung
NCI-H23 lung = tested on: NCI-H23 lung
NCI-H460 lung = tested on: NCI-H460 lung
NCI-H522 lung = tested on: NCI-H522 lung
NCI/ADR-RES ovarian = tested on: NCI/ADR-RES ovarian
OVCAR-3 ovarian = tested on: OVCAR-3 ovarian
OVCAR-4 ovarian = tested on: OVCAR-4 ovarian
OVCAR-5 ovarian = tested on: OVCAR-5 ovarian
OVCAR-8 ovarian = tested on: OVCAR-8 ovarian
PC-3 prostate = tested on: PC-3 prostate
RPMI-8226 leukemia = tested on: RPMI-8226 leukemia
RXF 393 renal = tested on: RXF 393 renal
SF-268 CNS = tested on: SF-268 CNS
SF-295 CNS = tested on: SF-295 CNS
SF-539 CNS = tested on: SF-539 CNS
SK-MEL-2 melanoma = tested on: SK-MEL-2 melanoma
SK-MEL-28 melanoma = tested on: SK-MEL-28 melanoma
SK-MEL-5 melanoma = tested on: SK-MEL-5 melanoma
SK-OV-3 ovarian = tested on: SK-OV-3 ovarian
SN12C renal = tested on: SN12C renal
SNB-19 CNS = tested on: SNB-19 CNS
SR leukemia = tested on: SR leukemia
SW-620 colon = tested on: SW-620 colon
T-47D breast = tested on: T-47D breast
TK-10 renal = tested on: TK-10 renal
U251 CNS = tested on: U251 CNS
UACC-257 melanoma = tested on: UACC-257 melanoma
UACC-62 melanoma = tested on: UACC-62 melanoma
UO-31 renal = tested on: UO-31 renal

CC(=O)c1ccc(Nc2nc(SC(C)C)nc(-c3ccccc3)c2C#N)cc1
GI50 (786-0 renal): 2.07 µM
TGI (786-0 renal): 4.81 µM
GI50 (A498 renal): 24.2 µM
TGI (A498 renal): 71.9 µM
GI50 (A549 NSCLC): 72.9 µM
TGI (A549 NSCLC): > 100 µM
GI50 (ACHN renal): 2.15 µM
TGI (ACHN renal): 5.17 µM
GI50 (BT-549 breast): 24.8 µM
TGI (BT-549 breast): > 100 µM
GI50 (CAKI-1 renal): 2.82 µM
TGI (CAKI-1 renal): 13.2 µM
GI50 (CCRF-CEM leukemia): > 100 µM
TGI (CCRF-CEM leukemia): > 100 µM
GI50 (COLO 205 colon): 15.6 µM
TGI (COLO 205 colon): > 100 µM
GI50 (DU-145 prostate): 17.6 µM
TGI (DU-145 prostate): > 100 µM
GI50 (EKVX NSCLC): 4.71 µM
TGI (EKVX NSCLC): > 100 µM
GI50 (HCC-2998 colon): 15.8 µM
TGI (HCC-2998 colon): > 100 µM
GI50 (HCT-116 colon): 1.34 µM
TGI (HCT-116 colon): 6.69 µM
GI50 (HCT-15 colon): 7.61 µM
TGI (HCT-15 colon): > 100 µM
GI50 (HL-60(TB) leukemia): > 100 µM
TGI (HL-60(TB) leukemia): > 100 µM
GI50 (HOP-62 NSCLC): 2.13 µM
TGI (HOP-62 NSCLC): 5.38 µM
GI50 (HOP-92 NSCLC): 1.91 µM
TGI (HOP-92 NSCLC): 7.86 µM
GI50 (HS 578T breast): 3.09 µM
TGI (HS 578T breast): 23.8 µM
GI50 (HT29 colon): 3.81 µM
TGI (HT29 colon): > 100 µM
GI50 (IGROV1 ovarian): 8.02 µM
TGI (IGROV1 ovarian): > 100 µM
GI50 (K-562 leukemia): 9.17 µM
TGI (K-562 leukemia): > 100 µM
GI50 (KM12 colon): > 100 µM
TGI (KM12 colon): > 100 µM
GI50 (LOX IMVI melanoma): 3.51 µM
TGI (LOX IMVI melanoma): > 100 µM
GI50 (M14 melanoma): 21.9 µM
TGI (M14 melanoma): > 100 µM
GI50 (MALME-3M melanoma): 14.1 µM
TGI (MALME-3M melanoma): > 100 µM
GI50 (MCF7 breast): 4.74 µM
TGI (MCF7 breast): > 100 µM
GI50 (MDA-MB-231 breast): 2.9 µM
TGI (MDA-MB-231 breast): 8.23 µM
GI50 (MDA-MB-435): 5.06 µM
TGI (MDA-MB-435): > 100 µM
GI50 (MDA-MB-468 breast): 5.08 µM
TGI (MDA-MB-468 breast): 50.2 µM
GI50 (MOLT-4 leukemia): > 100 µM
TGI (MOLT-4 leukemia): > 100 µM
GI50 (NCI-H226 lung): 2.54 µM
TGI (NCI-H226 lung): 7.14 µM
GI50 (NCI-H23 lung): 2.46 µM
TGI (NCI-H23 lung): 11.2 µM
GI50 (NCI-H460 lung): 3.53 µM
TGI (NCI-H460 lung): > 100 µM
GI50 (NCI-H522 lung): 8.3 µM
TGI (NCI-H522 lung): > 100 µM
GI50 (NCI/ADR-RES ovarian): 2.82 µM
TGI (NCI/ADR-RES ovarian): 10.6 µM
GI50 (OVCAR-3 ovarian): 40 µM
TGI (OVCAR-3 ovarian): > 100 µM
GI50 (OVCAR-4 ovarian): 5.07 µM
TGI (OVCAR-4 ovarian): > 100 µM
GI50 (OVCAR-5 ovarian): 21.2 µM
TGI (OVCAR-5 ovarian): > 100 µM
GI50 (OVCAR-8 ovarian): 3.29 µM
TGI (OVCAR-8 ovarian): > 100 µM
GI50 (PC-3 prostate): 8.98 µM
TGI (PC-3 prostate): > 100 µM
GI50 (RPMI-8226 leukemia): > 100 µM
TGI (RPMI-8226 leukemia): > 100 µM
GI50 (RXF 393 renal): 2.08 µM
TGI (RXF 393 renal): 7.48 µM
GI50 (SF-268 CNS): 5.35 µM
TGI (SF-268 CNS): > 100 µM
GI50 (SF-295 CNS): 1.4 µM
TGI (SF-295 CNS): 3.25 µM
GI50 (SF-539 CNS): 2.17 µM
TGI (SF-539 CNS): 7.69 µM
GI50 (SK-MEL-2 melanoma): > 100 µM
TGI (SK-MEL-2 melanoma): > 100 µM
GI50 (SK-MEL-28 melanoma): 16.9 µM
TGI (SK-MEL-28 melanoma): > 100 µM
GI50 (SK-MEL-5 melanoma): 5.03 µM
TGI (SK-MEL-5 melanoma): 20.3 µM
GI50 (SK-OV-3 ovarian): 5.02 µM
TGI (SK-OV-3 ovarian): 38.9 µM
GI50 (SN12C renal): 11.4 µM
TGI (SN12C renal): > 100 µM
GI50 (SNB-19 CNS): 2.05 µM
TGI (SNB-19 CNS): 4.63 µM
GI50 (SR leukemia): > 100 µM
TGI (SR leukemia): > 100 µM
GI50 (SW-620 colon): 3.77 µM
TGI (SW-620 colon): 64.1 µM
GI50 (T-47D breast): 81.6 µM
TGI (T-47D breast): > 100 µM
GI50 (TK-10 renal): 2.54 µM
TGI (TK-10 renal): 5.67 µM
GI50 (U251 CNS): 1.32 µM
TGI (U251 CNS): 4.26 µM
GI50 (UACC-257 melanoma): > 100 µM
TGI (UACC-257 melanoma): > 100 µM
GI50 (UACC-62 melanoma): 43.8 µM
TGI (UACC-62 melanoma): > 100 µM
GI50 (UO-31 renal): 2.03 µM
TGI (UO-31 renal): 4.94 µM
